The values that follow come from US20090099502A1, “Microneedle Device And Transdermal Administration Device Provided With Microneedles” (HISAMITSU PHARMACEUTICAL CO., INC., priority 2006, published 2009).

Each structure is given as a SMILES string. Entries after “also recorded” stand apart in the source; their conditions may differ. Structures can show the parent of a compound that is named as a salt.

Data set [1] has as its system hairless rat skin. As to the kind of experiment: Skin permeation tests with a drug in its free and salt forms using hairless rats (Example 7). As to conditions: both the fumarate and the free form, PVA117 coating.
Excerpt: (§1) A piece of foam tape (#9773, 7.84 cm^2) of 3M Company was pasted on the back side of the microneedle substrate in such a way that the adhesive layer of the tape would face the skin. The projecting ends of the tape were attached to the skin to bring the microneedle side of the microneedle substrate in close contact with the skin. To start the experiment, the microneedle substrate was placed on the skin and pressure applied (2 kg/patch for 5 seconds) on the substrate with a finger.
(§2) Microneedles (800 piles/patch) were coated all over their surfaces with 30 μl/patch one of the coating carriers, and dried at room temperature for 12 h for fixing. Skin removed from hairless rats was pierced with microneedles coated with the drug formulations, including those having their free forms, and samples were removed periodically. Phosphate buffer solution (PBS) was used for the receptor layer. The receptor solution sample, sampled at different time points, and acetonitrile were mixed at 1:1 ratio, stirred, centrifuged (15,000 rpm, 5° C., 5 minutes), then the supernatant was recovered, and its drug content measured by HPLC.
Animal species: Hairless rat (n=3)
Data set [2] has as its system hairless rat skin.
Excerpt: as §1, §2
Animal species: Hairless rat (n=3)
The conditions of data set [3]: whether in the free or the salt form; cited from earlier work.
The test system of data set [4] is hairless rat skin. The data set is described as follows: Skin permeation test of granisetron hydrochloride, blister-type drug product (Example 5). It counts as in vitro ADME. As to conditions: in examples 4 and 5. The protocol: In this experiment, the coating carrier was prepared for the entire surface of microneedles by using only 5 wt. % polyvinyl alcohol (PVA117), and the microneedles (800 pile/patch) were coated all over the surface with 30 μl/patch and dried for 12 h at room temperature for fixing. After piercing the skin with the microneedles, […] 32 wt. % aqueous solution of granisetron hydrochloride, 30 μl, was applied through the through-holes (openings) on the microneedle substrate. There were two control groups. In one of these, the microneedles were not given any coating and 30 μl of the drug solution alone was applied through the through-holes. In the other control group, an aqueous solution containing 5 wt. % of polyvinyl alcohol and 32 wt. % of granisetron hydrochloride was prepared, as before, as the coating carrier, and the microneedles (800 piles/patch) were coated all over the surface with 15 μl/patch of this coating carrier.
Skin was then removed from the trunk of a hairless rat and fitted to a vertical acrylic cell (2.54 cm^2) with the dermis side facing the receptor layer, and the whole assembly was placed in a constant temperature chamber set at 37° C. […] The drug content of the receptor solution obtained at each time of sampling was measured by HPLC (Excitation: 298 nm, fluorescence: 353 nm). […]

On to `CC(C)NCC(O)COc1ccc(COCCOC(C)C)cc1` (stereo not drawn) [Bisoprolol, bisoprolol], for which the skin permeability result with hairless rat skin [1] is on record as “good skin permeability”. Besides, the “maximum flux, salt form compared with free form” value with hairless rat skin [2] is recorded as “higher maximum flux in their salt form than in their free form”. In the data set on hairless rat skin [2] (hairless, rat, 16 wt. %), the “maximum flux, Free form” value worked out at 60 μg/cm^2/hr and the “maximum flux, Salt” value was 90 μg/cm^2/hr.
Consider `CCCN1C[C@H](CSC)C[C@@H]2c3cccc4[nH]cc(c34)C[C@H]21` [Pergolide, pergolide], for which the solubility in water result in data set [3] is given as “almost no solubility in water; also recorded: extremely low solubility”. In the data set on hairless rat skin [2] (hairless, rat, 16 wt. %), the “amount of drug permeation” value is “about 1 μg”; the “maximum flux, Free form” value is 0.1< μg/cm^2/hr; the “maximum flux, Salt” value is 0.1< μg/cm^2/hr.
`CCCN[C@H]1CCc2nc(N)sc2C1` [Pramipexol, pramipexol]: in the data set with hairless rat skin [2], the “maximum flux, salt form compared with free form” value is given as “higher maximum flux in their salt form than in their free form”. In addition, in the data set on hairless rat skin [2] (hairless, rat, 16 wt. %), the “maximum flux, Free form” value stood at 100 μg/cm^2/hr and the “maximum flux, Salt” value was 180 μg/cm^2/hr.
For the compound `CN1C2CCCC1CC(NC(=O)c1nn(C)c3ccccc13)C2` (stereo not drawn) [granisetron hydrochloride], in the data set on hairless rat skin [4], the skin permeability result is on record as “good skin permeability”.
